The nature of this data set: Recovery of paclitaxel added to mixtures after heating to 55° C. for 1 hour (reverse phase HPLC with UV detection). The format is physicochemical. The procedure:
The desirability of removing unreacted starting materials and/or acidic reaction by-products can be seen by reference to the data in Table 1. […] According to the data, when paclitaxel is combined with a diblock copolymer having up to 2% residual monomer and up to 0.2 μmol/mg acid content (expressed as the number of protons titrated in a solution prepared by dissolving 1 mg of diblock copolymer in water), after heating, only 95% of the paclitaxel initially added to the mixture could be recovered, as quantified using a reverse phase HPLC assay with UV detection and a taxane optimized C18 column.

The structures appear in SMILES notation.

On to `CC(=O)O[C@H]1C(=O)[C@@]2(C)[C@H]([C@H](OC(=O)c3ccccc3)[C@]3(O)C[C@H](OC(=O)[C@H](O)[C@@H](NC(=O)c4ccccc4)c4ccccc4)C(C)=C1C3(C)C)[C@]1(OC(C)=O)CO[C@@H]1C[C@@H]2O` [paclitaxel], for which the “Paclitaxel recovered after heating” value by setting is: (combined with diblock copolymer having up to 2% residual monomer and up to 0.2 μmol/mg acid content) 95%; (combined with methoxypolyethylene glycol, no measured acidic components and no DL-lactide monomer) 99%; (diblock copolymer with greatly reduced quantities of residual monomer and acidic components) 98%.

The values above are taken from patent US20090220604A1, “AMINO ACIDS IN MICELLE PREPARATION” (ANGIOTECH INTERNATIONAL AG, priority 2002, published 2009).
